Reference: EP0373543A2, “Diagnostic media and assay for detecting fungicide resistance” (BASF Corporation, priority 1988, dated 1990)

Tested on: Botrytis cinerea
Experiment: Color change response at varied vinclozolin concentration (Example 4)
Type: cell-based
Design: key: T = only slight color change
Settings: pH 5.5, about 48 hours
Description: Diagnostic media was prepared substantially as described above in Preparation Example 1 and the pH adjusted to 5.5 except that the vinclozolin concentrations in the media varied from about 10 ppm to 1000 ppm. The media was inoculated with 1 vinclozolin sensitive (BC-A) and 1 vinclozolin resistant isolate (BC-4) of Botrytis cinerea) and incubated at room temperature for about 48 hours.

Measured: Color Change Response

C=CC1(C)OC(=O)N(c2cc(Cl)cc(Cl)c2)C1=O (stereo not drawn) [vinclozolin]
T: isolate BC-4 (vinclozolin resistant), vinclozolin 500 ppm | isolate BC-4 (vinclozolin resistant), vinclozolin 1000 ppm | isolate BC-A (vinclozolin sensitive), vinclozolin 1000 ppm
